Data reported in patent US20260256753A1, “USE OF AN OREXIN 2 RECEPTOR AGONIST FOR IMPROVING RESPIRATORY FUNCTION DURING SLEEP” (TAKEDA PHARMACEUTICAL COMPANY LIMITED, priority 2023, published 2026).
Blank lines part the entries; values can stand above or below the compound they belong to.

Tests used:
[1] = Plasma concentration of Compound C after intravenous and oral administration in rats; format: in vivo, rat; settings: intravenous 0.3 and 1 mg/kg versus oral 3 and 10 mg/kg, respectively
Description: Due to technical feasibility of the experiment, anesthetized rats were used for EMG recording of the diaphragm. Compound C was administered intravenously to anesthetized rats in this experiment. To understand the relationship between the plasma effective concentration of Compound C for arousal and that for activation of the diaphragm, plasma concentration of Compound C after intravenous administration was measured. The maximum plasma concentrations of Compound C after intravenous administration at 0.3 and 1 mg/kg were similar to those after oral administration at 3 and 10 mg/kg, respectively.

rats = test: Arousal effects after oral administration in rats; format: in vivo, rat; settings: oral administration at 10 mg/kg or more
[2] = tested on: patients with obstructive sleep apnea; test: Phase 1b crossover study in obstructive sleep apnea: overnight polysomnography (PSG); format: in vivo, human
Description: (§1) A phase 1b, randomized, double-blind, placebo-controlled, 3-period crossover study was conducted to evaluate the safety, tolerability, pharmacodynamic, and pharmacokinetic effects of overnight intravenous COMPOUND A in patients with obstructive sleep apnea (OSA). This study was planned to further evaluate COMPOUND A intravenous administration (IV) in adults with OSA, hypothesizing that nonwake-promoting exposures of COMPOUND A would increase genioglossal muscle tone and increase airway patency via the increasing activity of hypoglossal motoneurons. The main goal of this study was to evaluate the mechanistic potential of OX2R agonism for treatment of OSA using COMPOUND A IV infusion to determine appropriate use in future trials with an oral OX2R agonist.
(§2) Participants were male or female, aged 18 to 75 years inclusive, with OSA diagnosed according to the International Classification of Sleep Disorders-3 (ICSD-3) criteria and an apnea hypopnea index (AHI) of 12 to 50 events/hour of sleep. The study consisted of a screening period, 3 treatment periods separated by 2 washout periods, and a follow-up period. A total of 13 participants were enrolled and randomized, of which 12 (92.3%) participants completed all planned doses of study drug and the study.
(§3) Eligible participants were randomly assigned (in a double-blinded manner) to 1 of 6 treatment sequences. In each treatment period, participants underwent 3 UACI assessments, a 10-minute evaluation that tested the key biological mechanism that causes OSA (as described by Osman, A. M., et al., 2019, Sleep, 42 (7), 1-10), followed by an overnight polysomnography (PSG). After the first baseline UACI assessment (U1), an IV infusion regimen of COMPOUND A or placebo was administered over approximately 10 hours to achieve specific plasma concentrations to evaluate the effect of COMPOUND A on the UACI and PSG metrics. Target plasma concentrations for the low-dose COMPOUND A IV regimen were 10 ng/mL for the second UACI (U2), 30 ng/ml for the third UACI (U3), and 10 ng/ml for the overnight PSG. Target plasma concentrations for the high-dose COMPOUND A IV regimen were 30 ng/mL for the U2, 90 ng/mL for the U3, and 30 ng/ml for the overnight PSG.
(§4) To achieve the target exposures for the UACI assessments (U2 and U3), there was a 20-minute loading period, followed by a 15-minute maintenance period for each. The overnight maintenance dose (approximately 490 minutes) covered the duration of a standard overnight PSG (approximately 8 hours). Doses were selected to cover the potential pharmacologically active concentration range for upper airway collapsibility. The concentration of COMPOUND A in solution was such that participants received the same volume of fluid in the low-dose COMPOUND A regimen, the high-dose COMPOUND A regimen, and placebo, allowing the study to be double-blinded and ensuring all participants were infused with the same volume of fluid.
Following the baseline UACI measurements, IV infusion of placebo or COMPOUND A began. COMPOUND A was tested at 2 concentrations in a stepwise manner, consisting of a 20 minute loading period followed by a 15 minute maintenance period per step. The UACI was tested at each concentration during the maintenance period. A Karolinska Sleepiness Scale (KSS) was administered immediately prior to each UACI testing period to gauge subjective sleepiness. After the U3 test, a KSS was administered, after which the UACI testing equipment (pressure sensors, genioglossus EMG electrodes) was removed with the exception of EEG electrodes that remained in place to record PSG throughout the evening. Prior to lights off, a final KSS was administered. Lights-off occurred, and participants were then allowed to sleep until the following morning (Day 2). Infusion of COMPOUND A/placebo was maintained throughout the night during the nocturnal PSG (nPSG) and ended approximately 8 hours after lights off. Participants were then discharged on Day 2. […]

[3] = tested on: patients with obstructive sleep apnea; test: Phase 1b crossover study of overnight intravenous infusion in obstructive sleep apnea: safety and tolerability; format: in vivo, human; settings: for placebo adjusted LS mean change in DBP / placebo adjusted LS mean change in SBP: at predose
Description: as §1, §2, §3, §4
On Day 1 of each treatment period, participants checked in approximately 3 hours prior to the scheduled dosing time. The procedure started in the evening to reduce the confounding factors of endogenous OX levels on assessments. Start time was adjusted based on the patient's usual bedtime. Following a physical examination, urine drug screen, and alcohol breathalyzer test, participants were fitted with an IV catheter for placebo/COMPOUND A infusion, electroencephalogram (EEG) electrodes to monitor wakefulness, choanal and epiglottic pressure sensors, and a nasal mask and pneumotachograph to measure airflow (Osman, et al. 2019).
Following the baseline UACI measurements, IV infusion of placebo or COMPOUND A began. COMPOUND A was tested at 2 concentrations in a stepwise manner, consisting of a 20 minute loading period followed by a 15 minute maintenance period per step. The UACI was tested at each concentration during the maintenance period. […]

[4] = 30 ng/ml continuously throughout the sleep period

- maximum plasma concentrations after intravenous administration compared with oral administration [1]: similar
SMILES: CC(C)(O)C(=O)N1CC(F)(F)[C@H](NS(C)(=O)=O)[C@@H]1Cc1cccc(-c2cc(F)cc(F)c2)c1F [Compound C, N-{(2S,3R)-4,4-difluoro-1-(2-hydroxy-2-methylpropanoyl)-2-[(2,3′,5′-trifluoro[1,1′-biphenyl]-3-yl)methyl]pyrrolidin-3-yl}methanesulfonamide]
- arousal effects (rats): potent arousal effects

SMILES: COC(=O)N1CCC[C@H](NS(C)(=O)=O)[C@@H]1CO[C@H]1CC[C@@H](c2ccccc2)CC1 (relative stereo) [Compound A, methyl(2R,3S)-3-((methylsulfonyl)amino)-2-(((cis-4-phenylcyclohexyl)oxy)methyl) piperidine-1-carboxylate]
- REM [2, 4]: significantly decreased
- ability to fall asleep [2, 4]: did not cause an inability to fall asleep
- sleep efficiency [2, 4]: reducing
- wake after sleep onset [2, 4]: increasing
- arousal threshold in response to ventilatory disturbance ([2]; high-dose regimen): decreased
- hypoxic burden estimate ([2]; high-dose regimen): ≤ 53 %*minutes/hour
- loop gain ([2]; high-dose regimen): decreased
- AHI LS mean ([2]; high-dose regimen of 30 ng/ml overnight): less than 30 events/hour
- decrease in AHI ([2]; high-dose regimen of 30 ng/ml overnight, statistically and clinically significant): approximately 9 events/hour
- pharyngeal collapsibility during sleep (Vpassive and Vactive) ([2]; high-dose regimen, OSA endotypes): appeared to decrease
- hypoxic burden ([2]; high-dose regimen, placebo-adjusted difference statistically significant): beneficial reduction in hypoxic burden
- hypoxic burden estimate ([2]; low-dose regimen): ≤ 53 %*minutes/hour
- participants who experienced drug-related TEAEs ([3]; all treatment periods (low-dose, high-dose, placebo), 13 participants): 23.1%
- number of drug-related TEAEs ([3]; all treatment periods (low-dose, high-dose, placebo), all mild): 4
- deaths or serious TEAEs ([3]; during the study): No deaths or serious TEAEs
- drug related TEAEs ([3]; high dose regimen): no drug related TEAEs
- placebo adjusted LS mean change in DBP ([3]; high dose regimen): 1.84 mmHg
- placebo adjusted LS mean change in SBP ([3]; high dose regimen): 9.01 mmHg
- consequence of TEAE of blood pressure increased ([3]; low dose regimen): led to study drug discontinuation
- placebo adjusted LS mean change in DBP ([3]; low dose regimen): 0.29 mmHg
- placebo adjusted LS mean change in SBP ([3]; low dose regimen): 2.44 mmHg
- dose related trend of most frequent TEAE (headache) ([3]; low versus high dose regimen): no dose related trend was observed
- tolerability ([3]; low-dose and high-dose IV regimens, adult participants with OSA): generally well tolerated with no safety concerns
- drug-related TEAE of blood pressure increased (number) ([3]; low-dose regimen): 1
- drug-related TEAE of myalgia (number) ([3]; low-dose regimen): 1
- drug-related TEAEs of headache (number) ([3]; low-dose regimen and placebo together): 2
- intensity of TEAEs ([3]; whole study, moderate headache on low dose regimen, not related to study drug): mild in intensity except for 1 moderate TEAE of headache
